The values below come from article PMC4859520, “Binding Properties of General Odorant Binding Proteins from the Oriental Fruit Moth, Grapholita molesta (Busck) (Lepidoptera: Tortricidae)” (PLoS ONE, 2016).

SMILES strings stand for the structures. Like-named read-outs stand apart in the source and are kept apart here.

The Ki is a dissociation constant, usually derived from enzyme kinetics or from competition with a known ligand. A word on the IC50: it is the concentration needed to halve the response being measured.

The target of one test is GmolGOBP1 (Grapholita molesta, UniProt H9XTU5). Briefly: Fluorescence competitive binding assay with probe 1-NPN, rGmolGOBP1. The following applies: for binding to rGmolGOBP1 (in words): competitive binding with 1-NPN. The method, then:
(§1) Fluorescence binding assays were performed on a Hitachi (Tokyo, Japan) F-4500 fluorescence spectrophotometer with a 1 cm light path fluorimeter quartz cuvette. Both of the slit widths for excitation and emission were 10 nm. 1-N-phenyl-naphthylamine (1-NPN) was dissolved in HPLC purity grade methanol to yield a 1 mM stock solution. […] The probes were excited at 337 nm and emission spectra were recorded between 370 and 550 nm. […] Binding data were collected in three independent measurements.
(§2) Dissociation constants of the complex GmolGOBPs/1-NPN (K1-NPN) were calculated by a nonlinear regression binding curve, using Prism 5.0 (GraphPad Software Inc.).

The target in another test is GmolGOBP2 (Grapholita molesta, UniProt H9XTU6). Description: Fluorescence competitive binding assay with probe 1-NPN, rGmolGOBP2 wild-type. The protocol: as §1, §2
Sequence of GmolGOBP2 (H9XTU6 entry or part of it): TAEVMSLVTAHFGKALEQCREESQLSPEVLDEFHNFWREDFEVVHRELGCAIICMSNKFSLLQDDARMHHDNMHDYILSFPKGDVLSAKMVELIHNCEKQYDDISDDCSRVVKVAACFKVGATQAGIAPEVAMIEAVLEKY
The target of a further test is rGmolPBP1. Further details: method as in earlier work. Conditions: cited from earlier work.
For another test, the target named is rGmolOBP8. Also noted: method as in PMID 26609640. Conditions: cited from earlier work.
The next test deals with rGmolOBP11. Also noted: method as in PMID 26609640. The following applies: cited from earlier work.
Another test concerns the target GmolGOBP2 V114A (Grapholita molesta, UniProt H9XTU6, V134A). Briefly: Fluorescence competitive binding assay, GmolGOBP2 mutant V114A. Conditions: for affinity of V114A mutant versus wild-type (in words): V114A versus wild-type rGmolGOBP2. The protocol:
(§3) Fluorescence binding assays were performed on a Hitachi (Tokyo, Japan) F-4500 fluorescence spectrophotometer with a 1 cm light path fluorimeter quartz cuvette. Both of the slit widths for excitation and emission were 10 nm. 1-N-phenyl-naphthylamine (1-NPN) was dissolved in HPLC purity grade methanol to yield a 1 mM stock solution. A 2 μM solution of the protein in 20 mM Tris-HCl, pH 7.4, was titrated with aliquots of 1 mM 1-NPN to final concentrations of 1, 2, 4, 6, 8, 10, 12, 14, 16, 18, and 22 μM. The probes were excited at 337 nm and emission spectra were recorded between 370 and 550 nm. All ligands (S1 File) used in competitive binding assays were also dissolved in HPLC purity grade methanol. The final concentrations of sex pheromones were between 1 and 22 μM for each rGmolGOBP protein, whereas the concentrations of 30 synthetic plant volatiles to rGmolGOBP1 and 2 were up to 64 and 100 μM, respectively. Binding data were collected in three independent measurements.
(§4) Dissociation constants of the complex GmolGOBPs/1-NPN (K1-NPN) were calculated by a nonlinear regression binding curve, using Prism 5.0 (GraphPad Software Inc.). The inhibition constants (Ki) of the competitors were computed from the corresponding IC50 values using the equation: Ki = [IC50]/(1+[1−NPN]/K1−NPN), where [1−NPN] is the free concentration of 1−NPN and K1-NPN is the dissociation constant of the complex protein/1-NPN.
(§5) Gene-specific primers were designed in accordance with the recommended protocols of the TaKaRa MutanBEST Kit (TaKaRa, Shiga, Japan). The GmolGOBP2 coding sequence was mutated to create the three mutants GmolGOBP2 T9A (threonine to alanine at position 9), GmolGOBP2 V111A (valine to alanine at position 111), and GmolGOBP2 V114A (valine to alanine at position 114). Mutations were obtained using the TaKaRa MutanBEST Kit with Pyrobest DNA polymerase with the pMD19-T/GmolGOBP2 plasmid DNA as template. All plasmids containing mutations were verified by DNA sequencing. Mutated protein expression and enrichment were performed as described above for rGmolGOBP1 and 2. After determining concentrations, purified mutants were applied to verify the binding affinities with dodecanol and its analogs in fluorescence ligand-binding assays.

A further test deals with GmolGOBP2 V111A (Grapholita molesta, UniProt H9XTU6, V131A). Description: Fluorescence competitive binding assay, GmolGOBP2 mutant V111A. Conditions: for affinity of V111A mutant versus wild-type (in words): V111A versus wild-type rGmolGOBP2. The protocol:
as §3, §4, §5

In a further test the target is GmolGOBP2 T9A (Grapholita molesta, UniProt H9XTU6, T29A). Briefly: Fluorescence competitive binding assay, GmolGOBP2 mutant T9A. The method, then:
as §3, §4, §5

Setting [1] is: protein and 1-NPN 2 μM, pH 7.4, calculated from IC50, read-out: GmolGOBP1 Ki.
Setting [2] is: protein and 1-NPN 2 μM, pH 7.4, displacing half of initial fluorescence, read-out: GmolGOBP1 IC50.
The mark [3] stands for this setting: protein and 1-NPN 2 μM, pH 7.4, calculated from IC50, read-out: GmolGOBP2 Ki.
[4] abbreviates: protein and 1-NPN 2 μM, pH 7.4, displacing half of initial fluorescence, read-out: GmolGOBP2 IC50.
The mark [5] stands for this setting: T9A versus wild-type rGmolGOBP2.

Sequence of GmolGOBP1 (H9XTU5 entry or part of it): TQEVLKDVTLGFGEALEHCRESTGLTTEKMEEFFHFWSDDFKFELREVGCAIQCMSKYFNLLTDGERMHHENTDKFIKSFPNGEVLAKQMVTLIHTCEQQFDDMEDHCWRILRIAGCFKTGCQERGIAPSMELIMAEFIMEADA
Sequence of GmolGOBP2 V111A (H9XTU6 entry or part of it V131A): as the sequence (H9XTU6 entry or part of it) above, with V111A counted along it
Sequence of GmolGOBP2 V114A (H9XTU6 entry or part of it V134A): as the sequence (H9XTU6 entry or part of it) above, with V114A counted along it
Sequence of GmolGOBP2 T9A (H9XTU6 entry or part of it T29A): as the sequence (H9XTU6 entry or part of it) above, with T9A counted along it

On to `CCCCCCC=O` [Heptanal], for which the Ki at GmolGOBP1 (setting [1]) is 34.2 µM. In addition, the IC50 on GmolGOBP1 (setting [2]) was 37.1 ± 4.5 µM.
As to `CCCCCCCCCCCCCCCC` [Hexadecane], the “binding to rGmolGOBP1 (in words)” value at GmolGOBP1 is reported as “very weak binding affinities”.
`CCCCCC=O` [Hexanal]: at GmolGOBP1, the IC50 came to 33.6 ± 2 µM and the Ki was found to be 30.9 µM.
Regarding `CCCCCCOC(C)=O` [Hexyl acetate], the results for the Ki on GmolGOBP1 (setting [1]) and on GmolGOBP2 (setting [3]) were 27.5 µM and 81.6 µM, respectively. Besides, the IC50 at GmolGOBP1 (setting [2]) came to 29.9 ± 4.11 µM; on GmolGOBP2 (setting [4]), 98.8 ± 3.63 µM.
As for `CC(=O)OCCC(C)C` [Isoamyl acetate], the inhibition constant (Ki) on GmolGOBP1 (setting [1]) was 26.6 µM. In addition, the IC50 at GmolGOBP1 (setting [2]) came to 29 ± 2.18 µM.
With `CC/C=C\CC1C(=O)CCC1CC(=O)OC` (centres unmarked) [Methyl jasmonate], the results for the Ki at GmolGOBP1 (setting [1]) and at GmolGOBP2 (setting [3]) were 35.8 µM and 60.8 µM, respectively. In addition, the figures for the IC50 at GmolGOBP1 (setting [2]) and at GmolGOBP2 (setting [4]) were 38.9 ± 1.56 µM and 73.7 ± 5 µM, respectively.
In the case of `COC(=O)c1ccccc1O` [Methyl salicylate], the IC50 on GmolGOBP1 is 49.8 ± 6.48 µM; on GmolGOBP2, 93.7 ± 5.55 µM. Also, the values for the Ki at GmolGOBP1 and on GmolGOBP2 were 45.8 µM and 77.3 µM, respectively.
On to `CCCCCCCCC=O` [Nonanal], for which the Ki on GmolGOBP1 (setting [1]) was 54.4 µM; on GmolGOBP2 (setting [3]), 75.3 µM. The IC50 on GmolGOBP1 (setting [2]) is 59.2 ± 8.7 µM; at GmolGOBP2 (setting [4]), 91.2 ± 5.49 µM.
Turning to `CCCCCCCCCCCCCCCCCC` [Octadecane], the “binding to rGmolGOBP1 (in words)” value at GmolGOBP1 is given as “very weak binding affinities”.
With `CCCCCCCC=O` [Octanal], the Ki on GmolGOBP1 (setting [1]) is 21.5 µM; at GmolGOBP2 (setting [3]), 66.4 µM. The IC50 on GmolGOBP1 (setting [2]) turned out to be 23.3 ± 1.43 µM; on GmolGOBP2 (setting [4]), 80.4 ± 3.79 µM.
Regarding `CCCCCCCCCCCCCCC` [Pentadecane], the Ki on GmolGOBP1 (setting [1]) was 11.4 µM. Besides, at GmolGOBP1 (setting [2]), the IC50 worked out at 12.4 ± 1.87 µM.
The like results for `CCCCCCCCCCCCCC` [Tetradecane] were, in that order, 8.47 µM and 9.21 ± 1.31 µM.
Take `CCC/C=C\CCCCCCCOC(C)=O` [Z8-12:AC, (Z)-8-dodecenyl acetate]: at GmolGOBP1, the “binding to rGmolGOBP1 (in words)” value is given as “did not bind”. Besides, the Ki at GmolGOBP2 (setting [3]) was 14.4 µM; at rGmolPBP1 it was 1.1 µM. At GmolGOBP2 (setting [4]), the IC50 was determined as 17.4 ± 0.87 µM.
In the case of `CCC/C=C\CCCCCCCO` [Z8-12:OH, (Z)-8-dodecenyl alcohol], the Ki is 5.59 µM on rGmolOBP8, 3.05 µM on rGmolOBP11, 3.14 µM at GmolGOBP1 (setting [1]) and 12.8 µM on GmolGOBP2 (setting [3]). Besides, the results for the IC50 at GmolGOBP1 (setting [2]) and at GmolGOBP2 (setting [4]) were 3.85 ± 0.41 µM and 15.5 ± 0.52 µM, respectively.
Turning to `CCCCCCCCCCO` [decanol], the Ki at GmolGOBP2 V114A amounted to 15.6 ± 0.43 µM; at GmolGOBP2 V111A it was 11.3 ± 0.17 µM; at GmolGOBP2 it was 15.3 ± 1 µM; on GmolGOBP2 T9A, 39.6 ± 2.34 µM. Further, the “affinity of V114A mutant versus wild-type (in words)” value on GmolGOBP2 V114A is “no differences”. Moreover, at GmolGOBP2 V111A, the “affinity of V111A mutant versus wild-type (in words)” value is “no differences”. Besides, the “decrease in affinity of T9A mutant” value at GmolGOBP2 T9A (setting [5]) was 3-5 fold.
With `CCCCCCCCCCCCCCCCO` [hexadecanol], the Ki worked out at 1.99 ± 0.74 µM at GmolGOBP2 V114A; 1.36 ± 0.13 µM on GmolGOBP2 V111A; 1.35 ± 0.45 µM on GmolGOBP2 (rGmolGOBP2 wild-type, protein and 1-NPN 2 μM, ligand 0 to 14 μM, read-out: Ki Wild-Type); 22.4 ± 3.03 µM at GmolGOBP2 T9A. In addition, at GmolGOBP2 V114A, the “affinity of V114A mutant versus wild-type (in words)” value is on record as “no differences”. The “affinity of V111A mutant versus wild-type (in words)” value at GmolGOBP2 V111A is “no differences”. Also, the “affinity of T9A mutant versus wild-type (in words)” value on GmolGOBP2 T9A (setting [5]) was “drastical decline in affinity”.
Turning to `CCCCCCCCCCCCCCO` [tetradecanol], the “affinity of V114A mutant versus wild-type (in words)” value at GmolGOBP2 V114A was “no differences”. Besides, the Ki at GmolGOBP2 V114A (mutant V114A, protein and 1-NPN 2 μM, ligand 0 to 14 μM, read-out: Ki V114A) came out at 0.37 ± 0.14 µM; on GmolGOBP2 V111A (mutant V111A, protein and 1-NPN 2 μM, ligand 0 to 14 μM, read-out: Ki V111A), 0.3 ± 0.16 µM; at GmolGOBP2, 0.36 ± 0.05 µM; on GmolGOBP2 T9A (mutant T9A, protein and 1-NPN 2 μM, ligand 0 to 14 μM, read-out: Ki T9A), 5.75 ± 0.86 µM. For the same molecule, the “affinity of V111A mutant versus wild-type (in words)” value on GmolGOBP2 V111A was “no differences”. At GmolGOBP2 T9A (setting [5]), the “affinity of T9A mutant versus wild-type (in words)” value was “drastical decline in affinity”.
As to `C=C/C(C)=C/CCC(=C)C` [α-Ocimene], the values for the Ki at GmolGOBP1 (setting [1]) and at GmolGOBP2 (setting [3]) were 12.4 µM and 44.1 µM, respectively. The IC50 on GmolGOBP1 (setting [2]) was 13.5 ± 0.79 µM; on GmolGOBP2 (setting [4]), 53.4 ± 4.91 µM.
On GmolGOBP1, `CC1=CCC2CC1C2(C)C` (stereo not drawn) [α-Pinene] registered an IC50 of 16.1 ± 1.22 µM and a Ki of 14.8 µM. At GmolGOBP2, this molecule had an IC50 of 51.7 ± 7.11 µM and a Ki of 42.6 µM.
